Results as given in patent publication US20030153575A1, “Tetracyclic diketopiperazine compounds as pdev inhibitors” (priority 2002, published 2003).

Experiments:
human recombinant PDE5 = human recombinant PDE5 (Homo sapiens, UniProt O76074); test: Inhibitory effect on cGMP-PDE (PDE5 IC50); format: biochemical; details: in vitro, human recombinant PDE5, 0.15 μM 8-[H3]-cGMP, 30 min incubation
Description: The compounds of structural formula (I) were tested for an ability to inhibit PDE5. The ability of a compound to inhibit PDE5 activity is related to the IC50 value for the compound, i.e., the concentration of inhibitor required for 50% inhibition of enzyme activity. The IC50 value for compounds of structural formula (I) were determined using recombinant human PDE5.
cGMP-PDE activity of compounds of the present invention was measured using a one-step assay adapted from Wells et al., Biochim. Biophys. Acta, […], 430 (1975). The reaction medium contained 50 mM Tris-HCl, pH 7.5, 5 mM magnesium acetate, 250 μg/ml 5′-Nucleotidase, 1 mM EGTA, and 0.15 μM 8-[H^3]-cGMP. Unless otherwise indicated, the enzyme used was a human recombinant PDE5 (ICOS Corp., Bothell, Wash.).
Compounds of the invention were dissolved in DMSO finally present at 2% in the assay.

IC50 (human recombinant PDE5)	melting point	SMILES
230 nM	288.2 to 292.2 °C	COc1cc([C@@H]2c3[nH]c4ccccc4c3C[C@@H]3C(=O)N(C)CC(=O)N23)ccc1O [Example 2, (6R,12aR)-6-(4-Hydroxy-3-methoxyphenyl)-2-methyl-2,3,6,7,12,12a-hexahydropyrazino[1′,2′:1,6]-pyrido[3,4-b]indole-1,4-dione]
45 nM	250.5 to 256.6 °C	CN1CC(=O)N2[C@H](c3ccc(O)c(O)c3)c3[nH]c4ccccc4c3C[C@@H]2C1=O [Example 1, (6R,12aR)-6-(3,4-Dihydroxyphenyl)-2-methyl-2,3,6,7,12,12a-hexahydropyrazino[1′,2′:1,6]-pyrido[3,4-b]indole-1,4-dione]
